Measurements as given in patent publication US20090263339A1, “AGENT FOR EXTERNAL APPLICATION TO THE SKIN” (KABUSHIKI KAISHA HAYASHIBARA SEIBUTSU KAGAKU KENKY, priority 2005, published 2009).
Converted amounts (≈) assume the structure as drawn. Where two headings read alike, the source gives them in different places. Blank lines part the entries; values can stand above or below the compound they belong to.

Tests used:
[1] = tested on: B16 melanoma cells of mouse; test: Effect of indigo-plant extract and other skin-whitening ingredient on melanin production (Experiment 2); format: cell-based; parameters: Efficacy with 1.25% of indigo-plant extract: key: −: Not changed; ±: Slightly suppressing blackening; +: Moderately suppressing blackening; ++: Significantly suppressing blackening; +++: Completely suppressing blackening; conditions: for Efficacy with 1.25% of indigo-plant extract: 72 hours; for Efficacy without indigo-plant extract: cultured 72 hours; for Efficacy without indigo-plant extract: key: −: Not changed; ±: Slightly suppressing blackening; +: Moderately suppressing blackening; ++: Significantly suppressing blackening; +++: Completely suppressing blackening
Procedure: The criterion for evaluation of blackening:
The following experiment was carried out to investigate the skin-whitening effect of indigo-plant extract and other skin-whitening ingredient. After B16 melanoma cells of mouse were cultured for 24 hours, the test samples were added to the medium alone or along with 1.25% of the indigo-plant extract to give the concentrations described in Table 2, the cells were cultured for additional 72 hours. After the number of the living cells was counted, a color of the cells packed in capillary was observed. The effect was evaluated on the same criterion in Experiment 1. When the experiment was conducted using 1.25% of the indigo-plant extract, the effect was evaluated as “+”.

A. actinomycetemcomitans [2] = test: MIC to dental bacteria, agar plate dilution; format: cell-based, Actinobacillus actinomycetemcomitans; conditions: Aggregatibacter actinomycetemcomitans
Procedure: (§1) The following experiment was carried out to investigate the effect of indigo-plant extract on human dental bacteria. Two parts by weight of shredded whole indigo plant was added with three parts by weight of purified water and stirred at a room temperature for 10 minutes to prepare the extract. The supernatant obtained by centrifugation was autoclaved at 120° C. for 20 minutes. After autoclaved, the supernatant obtained by centrifugation was filtrated to give an indigo-plant extract (solid content of 1.41%). The minimum inhibitory concentration (hereinafter, occasionally abbreviated as “MIC”) of the extract to dental bacteria (periodontal disease bacteria and caries bacteria) was determined. Also MIC of tryptanthrin, gallic acid and caffeic acid, which are found to be contained in the indigo-plant extract to dental bacteria. The measurement of MIC was conducted by the method described below.
(§2) MIC of the indigo-plant extract, tirptanthrin, gallic acid and caffeic acid was determined according to the standard method of Japanese Society of Chemotherapy (q.v. “Saikin-Shinkin Kensa” (Second edition), issued by Japan Public Health Association, pp. 524-529 (1982)). For periodontal disease bacteria, Prophyromonas gingivalis JCM8525, JCM12257 and ATCC33277, Actinobacillus actinomycetemcomitans (hereinafter, occasionally abbreviated as “A. actinomycetemcomitans”) JCM2434 and JCM8577, Prevotella intermedia (hereinafter, occasionally abbreviated as “P. intermedia”) JCM7365, and Campylobacter rectus (hereinafter, occasionally abbreviated as “C. rectus”) JCM6301 were used. For caries bacteria, Streptococcus mutans OMZ-175, OMZ-176, OMZ-65, OMZ-61, B-13D and Ingbritt, and Streptococcus sorbrinus (hereinafter, occasionally abbreviated as “S. sorbrinus”) 6715 were used. These bacteria were anaerobically cultured in Brain Heart Infusion medium (commercialized by Difco Laboratories Inc., hereinafter abbreviated as “BHI”) at 37° C. for 48 hours for periodontal disease bacteria or for 18 to 24 hours for caries bacteria. The broth of periodontal disease bacteria and caries bacteria was diluted to give the bacteria suspensions containing 10^8 cells/ml and 10^6 cells/ml, respectively. Five μl of any one of these suspension was inoculated on BHI agar plate containing various concentration of the indigo-plant extract, tryptanthrin, gallic acid or caffeic acid and anaerobically cultured at 37° C. for 24 hours.

C. rectus = test: MIC to dental bacteria, agar plate dilution; format: cell-based; conditions: Campylobacter rectus, read-out: Minimum Inhibitory Concentration (MIC)
Procedure: as §1, §2

P. intermedia = test: MIC to dental bacteria, agar plate dilution; format: cell-based; conditions: Prevotella intermedia, read-out: Minimum Inhibitory Concentration (MIC)
Procedure: as §1, §2

S. mutans = test: MIC to dental bacteria, agar plate dilution; format: cell-based; conditions: Streptococcus mutans
Procedure: as §1, §2

S. sobrinus = test: MIC to dental bacteria, agar plate dilution; format: cell-based, Streptococcus sorbrinus; conditions: Streptococcus sobrinus, read-out: Minimum Inhibitory Concentration (MIC)
Procedure: as §1
MIC of the indigo-plant extract, tirptanthrin, gallic acid and caffeic acid was determined according to the standard method of Japanese Society of Chemotherapy (q.v. “Saikin-Shinkin Kensa” (Second edition), issued by Japan Public Health Association, pp. 524-529 (1982)). For periodontal disease bacteria, Prophyromonas gingivalis JCM8525, JCM12257 and ATCC33277, Actinobacillus actinomycetemcomitans (hereinafter, occasionally abbreviated as “A. actinomycetemcomitans”) JCM2434 and JCM8577, Prevotella intermedia (hereinafter, occasionally abbreviated as “P. intermedia”) JCM7365, and Campylobacter rectus (hereinafter, occasionally abbreviated as “C. rectus”) JCM6301 were used. For caries bacteria, Streptococcus mutans OMZ-175, OMZ-176, OMZ-65, OMZ-61, B-13D and Ingbritt, and Streptococcus sorbrinus (hereinafter, occasionally abbreviated as “S. sorbrinus”) 6715 were used. These bacteria were anaerobically cultured in Brain Heart Infusion medium (commercialized by Difco Laboratories Inc., hereinafter abbreviated as “BHI”) at 37° C. for 48 hours for periodontal disease bacteria or for 18 to 24 hours for caries bacteria. […]

[3] = tested on: dental bacteria (periodontal disease bacteria and caries bacteria); test: MIC to dental bacteria, summary over all strains; format: cell-based
Procedure: as §1
MIC of the indigo-plant extract, tirptanthrin, gallic acid and caffeic acid was determined according to the standard method of Japanese Society of Chemotherapy (q.v. “Saikin-Shinkin Kensa” (Second edition), issued by Japan Public Health Association, pp. 524-529 (1982)). […]

A. actinomycetemcomitans [4] = test: MIC to dental bacteria, agar plate dilution; format: cell-based, Actinobacillus actinomycetemcomitans; conditions: Aggregatibacter actinomycetemcomitans; remark: listed apart in the source
[5] = tested on: B16 melanoma cells of mouse; test: Effect of polygonaceous plant extracts on melanin production, blackening of cells (Experiment 1); format: cell-based; for Efficacy (suppression of blackening of cells): key: −: Not changed; ±: Slightly suppressing blackening; +: Moderately suppressing blackening; ++: Significantly suppressing blackening; +++: Completely suppressing blackening
Procedure: The following experiment was carried out to investigate the effect of extract of polygonaceous plants on melanin production. After 2.2×10^5 of B16 melanoma cells of mouse were cultured by conventional method for 24 hours, the medium was added with indigo-plant extract to give a concentration of 1.25% or 2.5%, then they were cultured for additional 72 hours. After the number of the living cells was counted, color of the cells packed in capillary was observed. Using a medium added with any one of the extract of Japanese knotweed, buckwheat and knotgrass prepared by the same method of Example 1 described later to give a concentration of 2.5%, or added with koji acid to give a concentration of 2.5 mM as control, the B16 melanoma cells were cultured by the same manner as using indigo-plant extract. Then the colors of the cells were observed by the same manner as using indigo-plant extract. The degree of blackening of B16 melanoma cells was evaluated by the criterion described below.

B16 melanoma cells = test: Cytotoxicity to B16 melanoma cells; format: cell-based, mouse; conditions: 0.5 μg/ml
[6] = content 3.0% together with 1.25% indigo-plant extract
[7] = strain JMC2434, read-out: Minimum Inhibitory Concentration (MIC)
[8] = strain JMC8577, read-out: Minimum Inhibitory Concentration (MIC)
[9] = strain B-13D, read-out: Minimum Inhibitory Concentration (MIC)
[10] = strain Ingbritt, read-out: Minimum Inhibitory Concentration (MIC)
[11] = strain OMZ-61, read-out: Minimum Inhibitory Concentration (MIC)
[12] = strain OMZ-65, read-out: Minimum Inhibitory Concentration (MIC)
[13] = strain OMZ-175, read-out: Minimum Inhibitory Concentration (MIC)
[14] = strain OMZ-176, read-out: Minimum Inhibitory Concentration (MIC)
[15] = strain JMC8525, read-out: Minimum Inhibitory Concentration (MIC)
[16] = strain JMC12257, read-out: Minimum Inhibitory Concentration (MIC)
[17] = strain JMC33277, read-out: Minimum Inhibitory Concentration (MIC)
[18] = content 0.5% together with 1.25% indigo-plant extract
[19] = content 1.0% together with 1.25% indigo-plant extract

Structure (SMILES): CCCCc1ccc(O)cc1O [4-n-Butylresorcinol]
Efficacy with 1.25% of indigo-plant extract [1, 6]: +++
Efficacy without indigo-plant extract ([1]; content 3.0%): +

Structure (SMILES): OC[C@H]1O[C@@H](Oc2ccc(O)cc2)[C@H](O)[C@@H](O)[C@@H]1O [Arbutin, hydroquinone-β-D-glucoside]
Efficacy with 1.25% of indigo-plant extract ([1]; content 5.0% together with 1.25% indigo-plant extract): +++
Efficacy without indigo-plant extract ([1]; content 5.0%): +

MIC (A. actinomycetemcomitans [2]; [7]): 400 µg/mL (≈ 2220 µM)
MIC (A. actinomycetemcomitans [2]; [8]): 200 µg/mL (≈ 1110 µM)
MIC (C. rectus; strain JMC6301): 100 µg/mL (≈ 555 µM)
MIC (P. intermedia; strain JMC7365): 400 µg/mL (≈ 2220 µM)
MIC (S. mutans; [9]): 200 µg/mL (≈ 1110 µM)
MIC (S. mutans; [10]): 1600 µg/mL (≈ 8880 µM)
MIC (S. mutans; [11]): 400 µg/mL (≈ 2220 µM)
MIC (S. mutans; [12]): 200 µg/mL (≈ 1110 µM)
MIC (S. mutans; [13]): 400 µg/mL (≈ 2220 µM)
MIC (S. mutans; [14]): 800 µg/mL (≈ 4440 µM)
MIC (S. sobrinus; strain 6715): 800 µg/mL (≈ 4440 µM)
MIC (A. actinomycetemcomitans [4]; [15]): 400 µg/mL (≈ 2220 µM)
MIC (A. actinomycetemcomitans [4]; [16]): 400 µg/mL (≈ 2220 µM)
MIC (A. actinomycetemcomitans [4]; [17]): 400 µg/mL (≈ 2220 µM)
Structure (SMILES): O=C(O)/C=C/c1ccc(O)c(O)c1 [Caffeic acid, caffeic acid]
Antimicrobial activity (in words) [3]: no antimicrobial activity

Structure (SMILES): O=c1oc2c(O)c(O)cc3c(=O)oc4c(O)c(O)cc1c4c23 [Ellagic acid]
Efficacy with 1.25% of indigo-plant extract [1, 18]: ++
Efficacy without indigo-plant extract ([1]; content 0.5%): ±

MIC (A. actinomycetemcomitans [2]; [7]): 800 µg/mL (≈ 4700 µM)
MIC (A. actinomycetemcomitans [2]; [8]): 800 µg/mL (≈ 4700 µM)
MIC (C. rectus; strain JMC6301): 400 µg/mL (≈ 2350 µM)
MIC (P. intermedia; strain JMC7365): 400 µg/mL (≈ 2350 µM)
MIC (S. mutans; [9]): 200 µg/mL (≈ 1180 µM)
MIC (S. mutans; [10]): 1600 µg/mL (≈ 9410 µM)
MIC (S. mutans; [11]): 200 µg/mL (≈ 1180 µM)
MIC (S. mutans; [12]): 1600 µg/mL (≈ 9410 µM)
MIC (S. mutans; [13]): 400 µg/mL (≈ 2350 µM)
MIC (S. mutans; [14]): 400 µg/mL (≈ 2350 µM)
MIC (S. sobrinus; strain 6715): 800 µg/mL (≈ 4700 µM)
MIC (A. actinomycetemcomitans [4]; [15]): 400 µg/mL (≈ 2350 µM)
MIC (A. actinomycetemcomitans [4]; [16]): 400 µg/mL (≈ 2350 µM)
MIC (A. actinomycetemcomitans [4]; [17]): 400 µg/mL (≈ 2350 µM)
Structure (SMILES): O=C(O)c1cc(O)c(O)c(O)c1 [Gallic acid, gallic acid]

Structure (SMILES): CCCCC/C=C\C/C=C\CCCCCCCC(=O)O [Linoleic acid]
Efficacy with 1.25% of indigo-plant extract [1, 18]: ++
Efficacy without indigo-plant extract ([1]; content 0.5%): ±

Structure (SMILES): COc1ccc(C(=O)[O-])c(O)c1.[K+] [Potassium 4-methoxysalicylate]
Efficacy with 1.25% of indigo-plant extract [1, 19]: +++
Efficacy without indigo-plant extract ([1]; content 1.0%): +

Structure (SMILES): O=C1O[C@H]([C@@H](O)CO)C([O-])=C1O.[Na+] [Sodium L-ascorbate]
Efficacy with 1.25% of indigo-plant extract [1, 6]: +++
Efficacy without indigo-plant extract ([1]; content 3.0%): +

Structure (SMILES): COc1cc(CCC(=O)CC(=O)CCc2ccc(O)c(OC)c2)ccc1O [Tetrahydrocurcumin]
Efficacy with 1.25% of indigo-plant extract [1, 18]: ++
Efficacy without indigo-plant extract ([1]; content 0.5%): ±

Structure (SMILES): NC[C@H]1CC[C@H](C(=O)O)CC1 [Tranexamic acid]
Efficacy with 1.25% of indigo-plant extract [1, 19]: ++
Efficacy without indigo-plant extract ([1]; content 1.0%): ±

Structure (SMILES): O=c1cc(CO)occ1O [koji acid]
Efficacy (suppression of blackening of cells) ([5]; medium containing 2.5 mM, cultured 72 hours): +
Efficacy with 1.25% of indigo-plant extract [1, 19]: +++
Efficacy without indigo-plant extract ([1]; content 1.0%): +

Structure (SMILES): O=C1c2ccccc2-n2c1nc1ccccc1c2=O [tryptanthrin]
Melanin production ([5]; 0.5 μg/ml or more used instead of the indigo-plant extract): melanin production was suppressed although the effect was lower than the one of indigo-plant extract
Cytotoxicity (B16 melanoma cells): no cytotoxity to B16 melanoma cells was observed
MIC (A. actinomycetemcomitans [2]; read-out: Minimum Inhibitory Concentration (MIC), strain JMC2434): 25 µg/mL (≈ 101 µM)
MIC (A. actinomycetemcomitans [2]; read-out: Minimum Inhibitory Concentration (MIC), strain JMC8525): 6.25 µg/mL (≈ 25.2 µM)
MIC (A. actinomycetemcomitans [2]; read-out: Minimum Inhibitory Concentration (MIC), strain JMC8577): 25 µg/mL (≈ 101 µM)
MIC (C. rectus): 25 µg/mL (≈ 101 µM)
MIC (P. intermedia): 6.25 µg/mL (≈ 25.2 µM)
MIC (S. mutans; read-out: Minimum Inhibitory Concentration (MIC), strain B-13D): 6.25 µg/mL (≈ 25.2 µM)
MIC (S. mutans; read-out: Minimum Inhibitory Concentration (MIC), strain Ingbritt): 25 µg/mL (≈ 101 µM)
MIC (S. mutans; read-out: Minimum Inhibitory Concentration (MIC), strain OMZ-61): 6.25 µg/mL (≈ 25.2 µM)
MIC (S. mutans; read-out: Minimum Inhibitory Concentration (MIC), strain OMZ-65): 12.5 µg/mL (≈ 50.4 µM)
MIC (S. mutans; read-out: Minimum Inhibitory Concentration (MIC), strain OMZ-175): 6.25 µg/mL (≈ 25.2 µM)
MIC (S. mutans; read-out: Minimum Inhibitory Concentration (MIC), strain OMZ-176): 12.5 µg/mL (≈ 50.4 µM)
MIC (S. sobrinus): 25 µg/mL (≈ 101 µM)
MIC (A. actinomycetemcomitans [4]; read-out: Minimum Inhibitory Concentration (MIC), strain JMC12257): 12.5 µg/mL (≈ 50.4 µM)
MIC (A. actinomycetemcomitans [4]; read-out: Minimum Inhibitory Concentration (MIC), strain JMC33277): 12.5 µg/mL (≈ 50.4 µM)
